Results published in US20230382925A1, “MODULATORS OF CYSTIC FIBROSIS TRANSMEMBRANE CONDUCTANCE REGULATOR” (VERTEX PHARMACEUTICALS INCORPORATED, priority 2020, published 2023).
Read-outs that look alike come from different tables or passages of the source.

Target: CFTR (Homo sapiens, UniProt P13569)
Test: Membrane Potential Dye, Enteroid Assay B
Type: cell-based
In short: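 Activity given as % of a triple-combination reference (1 μM and 3 μM correctors, 300 nM acute potentiator). Enteroids were preincubated 18-24 h with compound; chloride efflux then measured 15 min by methyl oxonol fluorescence after forskolin/IBMX/Compound III stimulation in chloride-free buffer containing CaCCinh-A01 and Chicago Sky Blue.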

[1] = Table 10, read-out: Ent. B EC50

CFTR, sequence (P13569 with tags, fused parts or gaps DEL508-508): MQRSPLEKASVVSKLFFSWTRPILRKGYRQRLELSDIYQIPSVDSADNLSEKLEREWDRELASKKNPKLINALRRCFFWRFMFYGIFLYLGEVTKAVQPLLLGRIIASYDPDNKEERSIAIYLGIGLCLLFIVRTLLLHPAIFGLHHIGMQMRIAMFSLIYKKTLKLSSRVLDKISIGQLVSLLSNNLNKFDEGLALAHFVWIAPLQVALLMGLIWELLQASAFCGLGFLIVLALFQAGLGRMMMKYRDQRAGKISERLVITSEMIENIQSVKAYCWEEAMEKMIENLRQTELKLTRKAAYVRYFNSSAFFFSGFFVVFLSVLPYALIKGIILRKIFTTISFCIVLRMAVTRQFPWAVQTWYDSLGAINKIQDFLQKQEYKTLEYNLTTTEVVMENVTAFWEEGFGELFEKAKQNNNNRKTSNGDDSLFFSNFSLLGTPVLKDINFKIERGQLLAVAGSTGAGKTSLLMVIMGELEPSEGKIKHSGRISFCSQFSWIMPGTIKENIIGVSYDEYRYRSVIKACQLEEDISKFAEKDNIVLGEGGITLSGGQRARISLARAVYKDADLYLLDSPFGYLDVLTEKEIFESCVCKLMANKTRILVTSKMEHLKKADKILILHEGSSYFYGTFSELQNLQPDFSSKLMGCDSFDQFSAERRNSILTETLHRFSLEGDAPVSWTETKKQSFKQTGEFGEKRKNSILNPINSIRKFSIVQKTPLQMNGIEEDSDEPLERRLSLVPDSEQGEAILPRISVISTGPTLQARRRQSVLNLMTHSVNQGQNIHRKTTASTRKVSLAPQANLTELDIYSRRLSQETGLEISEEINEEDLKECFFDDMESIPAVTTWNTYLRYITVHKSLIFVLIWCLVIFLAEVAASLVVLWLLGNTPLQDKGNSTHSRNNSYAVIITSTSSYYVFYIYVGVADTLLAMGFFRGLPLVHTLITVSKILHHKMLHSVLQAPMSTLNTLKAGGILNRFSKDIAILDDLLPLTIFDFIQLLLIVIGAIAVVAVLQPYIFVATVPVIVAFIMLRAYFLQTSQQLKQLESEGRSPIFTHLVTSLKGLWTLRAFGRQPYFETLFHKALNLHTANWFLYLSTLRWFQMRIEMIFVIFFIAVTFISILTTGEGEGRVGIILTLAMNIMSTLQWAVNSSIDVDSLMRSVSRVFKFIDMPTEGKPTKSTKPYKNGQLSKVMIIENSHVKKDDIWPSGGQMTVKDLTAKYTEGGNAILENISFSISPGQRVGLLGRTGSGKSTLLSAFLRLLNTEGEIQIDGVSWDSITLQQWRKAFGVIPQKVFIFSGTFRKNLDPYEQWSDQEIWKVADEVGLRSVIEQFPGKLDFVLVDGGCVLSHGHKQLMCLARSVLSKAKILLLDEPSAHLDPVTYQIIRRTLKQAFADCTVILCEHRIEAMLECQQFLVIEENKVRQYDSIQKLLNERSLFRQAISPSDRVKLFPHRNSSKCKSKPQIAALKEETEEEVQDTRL

| SMILES | Ent. B Max Activity (%) (Table 9) | EC50 (Table 9, read-out: Ent. B EC50) | Ent. B Max Activity (%) (Table 10) | EC50 [1] | other results |
| --- | --- | --- | --- | --- | --- |
| Cc1cccc(C)c1-c1cc2nc(n1)NS(=O)(=O)c1cccc(c1)C(=O)N(C1CC3(CCN(CCOC(C)C)CC3)C1)[C@H](CC1(C(F)(F)F)CC1)CO2 [Compound 129, (11R)-6-(2,6-dimethylphenyl)-12-[7-(2-isopropoxyethyl)-7-azaspiro[3.5]nonan-2-yl]-2,2-dioxo-11-[[1-(trifluoromethyl)cyclopropyl]methyl]-9-oxa-2λ^6-thia-3,5,12,19-tetrazatricyclo[12.3.1.14,8]nonadeca-1(18),4(19),5,7,14,16-hexaen-13-one] |  |  |  |  | Ent. B Max Activity (%): +++ (+++ is >60%); EC50 (read-out: Ent. B EC50): < 1 µM |
| COCCN(C)[C@H]1C[C@@]2(C1)C[C@H](N1C(=O)c3cccc(c3)S(=O)(=O)Nc3nc(cc(-c4c(C)cccc4C)n3)OC[C@H]1CC1(C(F)(F)F)CC1)C2 (stereo partly drawn) [Compound 83, (R)-16-(2,6-Dimethylphenyl)-6-((2R,4r,6R)-6-((2-methoxyethyl)(methyl)amino)spiro[3.3]heptan-2-yl)-7-((1-(trifluoromethyl)cyclopropyl)methyl)-9-oxa-3-thia-2,6-diaza-1(2,4)-pyrimidina-4(1,3)-benzenacyclononaphan-5-one 3,3-dioxide] | +++ (+++ is >60%) | < 1 µM |  |  |  |
| Cc1cccc(C)c1-c1cc2nc(n1)NS(=O)(=O)c1cccc(c1)C(=O)N([C@H]1C[C@@H](N(C)C)C1)[C@H](CC(C)C)CO2 [Compound 302] |  |  |  |  | Ent. B Max Activity (%): +++ (+++ is >60%); EC50 (read-out: Ent. B EC50): < 1 µM |
| Cc1cccc(C)c1-c1cc2nc(n1)NS(=O)(=O)c1cccc(c1)C(=O)N(C1CC(NC34CC(C3)C4)C1)[C@H](CC(C)C)CO2 (stereo partly drawn) [Compound 73, (11R)-12-[3-(1-Bicyclo[1.1.1]pentanylamino)cyclobutyl]-6-(2,6-dimethylphenyl)-11-isobutyl-2,2-dioxo-9-oxa-2λ^6-thia-3,5,12,19-tetrazatricyclo[12.3.1.14,8]nonadeca-1(18),4(19),5,7,14,16-hexaen-13-one] | +++ (+++ is >60%) | < 1 µM |  |  |  |
| CC(C)C[C@@H]1COc2cc(C3CCCCC3(C)C)nc(n2)NS(=O)(=O)c2cccc(c2)C(=O)N1C1CC2(CCN(C)CC2)C1 (stereo partly drawn) [Compound 394] |  |  |  |  | Ent. B Max Activity (%): +++ (+++ is >60%); EC50 (read-out: Ent. B EC50): 1 to 3 µM |
| Cc1cccc(C)c1-c1cc2nc(n1)NS(=O)(=O)c1cccc(c1)C(=O)N(C1CC3(C1)CC(C(C)(C)O)C3)[C@H](CCC(C)(C)C)CO2 (single isomer, unassigned) [Compound 9] |  |  | +++ (+++ is >60%) | < 1 µM |  |
| CCN(C(=O)OC)C1CC2(C1)CC(N1C(=O)c3cccc(c3)S(=O)(=O)Nc3nc(cc(-c4c(C)cccc4C)n3)OC[C@H]1CC(C)(C)C)C2 (stereo in doubt) [Compound 236] |  |  | ++ (++ is 30-60%) | < 1 µM |  |
| [H][C@]1(N2C(=O)c3cccc(c3)S(=O)(=O)Nc3nc(cc(-c4c(C)cccc4C)n3)OC[C@H]2CC2(C(F)(F)F)CC2)C[C@]2(C[C@@H](CO)C2)C1 (single isomer, unassigned) [Compound 134] |  |  |  |  | Ent. B Max Activity (%): +++ (+++ is >60%); EC50 (read-out: Ent. B EC50): < 1 µM |
| Cc1cccc(C)c1-c1cc2nc(n1)NS(=O)(=O)c1cccc(c1)C(=O)N(C1CC3(CC3)C1)C(CC(C)(C)C(F)(F)F)CO2 (stereo not drawn) [Compound 217] |  |  |  |  | Ent. B Max Activity (%): +++ (+++ is >60%); EC50 (read-out: Ent. B EC50): < 1 µM |
| Cc1cccc(C)c1-c1cc2nc(n1)NS(=O)(=O)c1cccc(c1)C(=O)N([C@H]1C[C@@H](OC(C)C)C1)[C@H](CC(C)C)CO2 (single isomer, unassigned) [Compound 45] | +++ (+++ is >60%) | < 1 µM |  |  |  |
| Cc1cccc(C)c1-c1cc2nc(n1)NS(=O)(=O)c1cccc(c1)C(=O)N(C1CC(OC(F)(F)F)C1)[C@H](CC(C)C)CO2 (stereo in doubt) [Compound 213] | +++ (+++ is >60%) | < 1 µM |  |  |  |
| Cc1cccc(C)c1-c1cc2nc(n1)NS(=O)(=O)c1cccc(c1)C(=O)N([C@@H]1CC[C@@H]1C1CC1)[C@H](CC(C)(C)C)CO2 (racemic) [Compound 149, (11R)-12-(2-Cyclopropylcyclobutyl)-6-(2,6-dimethylphenyl)-11-(2,2-dimethylpropyl)-2,2-dioxo-9-oxa-2λ^6-thia-3,5,12,19-tetrazatricyclo[12.3.1.14,8]nonadeca-1(18),4(19),5,7,14,16-hexaen-13-one] |  |  | +++ (+++ is >60%) | < 1 µM |  |
| Cc1cccc(C)c1-c1cc2nc(n1)NS(=O)(=O)c1cccc(c1)C(=O)N(C1CC(CO)(C(C)(C)O)C1)[C@H](CC(C)(C)C)CO2 (single isomer, unassigned) [Compound 160] |  |  | +++ (+++ is >60%) | < 1 µM |  |
| Cc1cccc(C)c1-c1cc2nc(n1)NS(=O)(=O)c1cccc(c1)C(=O)N(C1CC(N(C)CCC(C)(C)C)C1)[C@H](CC(C)C)CO2 (stereo partly drawn) [Compound 69, (11R)-12-[3-[3,3-dimethylbutyl(methyl)amino]cyclobutyl]-6-(2,6-dimethylphenyl)-11-isobutyl-2,2-dioxo-9-oxa-2λ^6-thia-3,5,12,19-tetrazatricyclo[12.3.1.14,8]nonadeca-1(18),4(19),5,7,14,16-hexaen-13-one] | +++ (+++ is >60%) | < 1 µM |  |  |  |
| Cc1cccc(C)c1-c1cc2nc(n1)NS(=O)(=O)c1cccc(c1)C(=O)N(C1CC3(CCNC(=O)C3)C1)[C@H](CC(C)C)CO2 (stereo partly drawn) [Compound 200] |  |  | ++ (++ is 30-60%) | < 1 µM |  |
| Cc1cccc(C)c1-c1cc2nc(n1)NS(=O)(=O)c1cccc(c1)C(=O)N(C1CC(N)C1)[C@H](CC(C)(C)C)CO2 (single isomer, unassigned) [Compound 166] |  |  | ++ (++ is 30-60%) | < 1 µM |  |
| Cc1cccc(C)c1-c1cc2nc(n1)NS(=O)(=O)c1cccc(c1)C(=O)N([C@H]1C[C@@H](CN(C)C)C1)[C@H](CC(C)C)CO2 (single isomer, unassigned) [Compound 106] | +++ (+++ is >60%) | < 1 µM |  |  |  |
| CNC(=O)C1CC2(C1)CC(N1C(=O)c3cccc(c3)S(=O)(=O)Nc3nc(cc(-c4c(C)cccc4C)n3)OC[C@H]1CC(C)(C)C)C2 (stereo partly drawn) [Compound 234] |  |  | +++ (+++ is >60%) | < 1 µM |  |
| COC1(C)CCN(C(=O)C2CC(N3C(=O)c4cccc(c4)S(=O)(=O)Nc4nc(cc(-c5c(C)cccc5C)n4)OC[C@H]3CC(C)C)C2)CC1 (stereo partly drawn) [Compound 309] |  |  |  |  | Ent. B Max Activity (%): +++ (+++ is >60%); EC50 (read-out: Ent. B EC50): < 1 µM |
| COC(=O)NC1CC(N2C(=O)c3cccc(c3)S(=O)(=O)Nc3nc(cc(-c4c(C)cccc4C)n3)OC[C@H]2CC2(C(F)(F)F)CC2)C1 (single isomer, unassigned) [Compound 53] | +++ (+++ is >60%) | < 1 µM |  |  |  |
| Cc1cccc(C)c1-c1cc2nc(n1)NS(=O)(=O)c1cccc(c1)C(=O)N(C1CC(NC(=O)OC(C)C)C1)[C@H](CC(C)(C)C(F)(F)F)CO2 (single isomer, unassigned) [Compound 192] |  |  | +++ (+++ is >60%) | < 1 µM |  |
| COC(=O)NC1CC2(C1)CC(N1C(=O)c3cccc(c3)S(=O)(=O)Nc3nc(cc(-c4c(C)cccc4C)n3)OC[C@H]1CC(C)(C)C(F)(F)F)C2 (single isomer, unassigned) [Compound 75] | +++ (+++ is >60%) | < 1 µM |  |  |  |

Second part, led by results:

| Ent. B Max Activity (%) (Table 9) | EC50 (Table 9, read-out: Ent. B EC50) | Ent. B Max Activity (%) (Table 10) | EC50 [1] | SMILES | other results |
| --- | --- | --- | --- | --- | --- |
|  |  | +++ (+++ is >60%) | < 1 µM | Cc1cccc(C)c1-c1cc2nc(n1)NS(=O)(=O)c1cccc(c1)C(=O)N([C@H]1C[C@@H](OC(=O)Nc3ccccc3)C1)[C@H](CC(C)C)CO2 (stereo in doubt) [Compound 360] |  |
|  |  | ++ (++ is 30-60%) | < 1 µM | CCC(=O)NC1(C)CC(N2C(=O)c3cccc(c3)S(=O)(=O)Nc3nc(cc(-c4c(C)cccc4C)n3)OC[C@H]2CC(C)(C)C)C1 (stereo partly drawn) [Compound 242] |  |
|  |  | +++ (+++ is >60%) | < 1 µM | Cc1cccc(C)c1-c1cc2nc(n1)NS(=O)(=O)c1cccc(c1)C(=O)N([C@H]1C[C@@]3(C[C@H](NC(=O)C(C)C)C3)C1)[C@H](CC1(C(F)(F)F)CC1)CO2 (stereo partly drawn) [Compound 247] |  |
| +++ (+++ is >60%) | < 1 µM |  |  | COCCNC1CC2(C1)CC(N1C(=O)c3cccc(c3)S(=O)(=O)Nc3nc(cc(-c4c(C)cccc4C)n3)OC[C@H]1CC(C)C)C2 (stereo in doubt) [Compound 287] |  |
| +++ (+++ is >60%) | < 1 µM |  |  | Cc1cccc(C)c1-c1cc2nc(n1)NS(=O)(=O)c1cccc(c1)C(=O)N([C@H]1C[C@@]3(C[C@H](NC(C)C)C3)C1)[C@H](CC1(C(F)(F)F)CC1)CO2 (stereo partly drawn) [Compound 266] |  |
|  |  | +++ (+++ is >60%) | < 1 µM | Cc1cccc(C)c1-c1cc2nc(n1)NS(=O)(=O)c1cccc(c1)C(=O)N(C1CC3(CCN(C(=O)C(C)C)CC3)C1)[C@H](CC(C)(C)C(F)(F)F)CO2 [Compound 416] |  |
| +++ (+++ is >60%) | < 1 µM |  |  | CC(=O)N[C@H]1C[C@@H](N2C(=O)c3cccc(c3)S(=O)(=O)Nc3nc(cc(-c4c(C)cccc4C)n3)OC[C@H]2CC(C)C)C1 [Compound 366] |  |
| +++ (+++ is >60%) | < 1 µM |  |  | Cc1cccc(C)c1-c1cc2nc(n1)NS(=O)(=O)c1cccc(c1)C(=O)N([C@H]1C[C@@H](N3CCC(OCC4CC4)CC3)C1)[C@H](CC(C)C)CO2 [Compound 386] |  |
| +++ (+++ is >60%) | < 1 µM |  |  | COCCCN(C)[C@H]1C[C@@H](N2C(=O)c3cccc(c3)S(=O)(=O)Nc3nc(cc(-c4c(C)cccc4C)n3)OC[C@H]2CC(C)C)C1 (stereo in doubt) [Compound 379] |  |
|  |  | ++ (++ is 30-60%) | < 1 µM | CCC(=O)N(C)C1CC(N2C(=O)c3cccc(c3)S(=O)(=O)Nc3nc(cc(-c4c(C)cccc4C)n3)OC[C@H]2CC(C)(C)C)C1 (single isomer, unassigned) [Compound 240] |  |
| +++ (+++ is >60%) | < 1 µM |  |  | Cc1cccc(C)c1-c1cc2nc(n1)NS(=O)(=O)c1cccc(c1)C(=O)N(C1CC3(CCN(C(=O)[C@@H](C)O)CC3)C1)[C@H](CC(C)C)CO2 [Compound 455] |  |
